Measured values reported in US20100190688A1, “Tetrapeptide analogs” (priority 2004, published 2010).

Columns and labels:
[1] = molecular target: BIR3 domain of rat XIAP (Rattus norvegicus, UniProt Q9R0I6); assay: Fluorescence polarization assay, binding to BIR3 from rat XIAP
Protocol: In fluorescence polarization assays a fluorescent probe is used. The binding affinity of compounds to BIR3 is measured by competitive displacement of a fluorescent probe using fluorescence polarization anisotropy. […] In other embodiments, the probe used is 6-(6-Hydroxy-3-oxo-3H-xanthen-9-yl)-N-(5-(2-methylamino-propionylamino)-6-oxo-6-[4-(1,2,3,4-tetrahydro-naphthalen-1-ylcarbamoyl)-thiazolidin-3-yl]-hexyl)-isophthalamic acid.
The binding affinity of compounds provided herein for rat BIR3 was measured by competitive displacement of a fluorescent probe using fluorescence polarization anisotropy. […] Control conditions were set up on each plate and include free probe 1 alone (5 nM), fully bound probe (5 μM BIR3+5 nM probe 1) and binding buffer blank. The-EC50 of binding was computed from a 4-parameter fit of the measured anisotropies using the SoftMax Pro 4.6 software package (Molecular Dynamics, Sunnyvale, Calif.).
Alternatively, probe 1 was substituted with probe 2: 6-(6-Hydroxy-3-oxo-3H-xanthen-9-yl)-N-{5-(2-methylamino-propionylamino)-6-oxo-6-[4-(1,2,3,4-tetrahydro-naphthalen-1-ylcarbamoyl)-thiazolidin-3-yl]-hexyl}-isophthalamic acid, for rat BIR3 and the concentrations of assay components changed. […] Controls were adjusted accordingly.

[2] = molecular target: T1, BIR3-mediated Caspase-9 inhibition (UniProt Q9R0I6); assay: Caspase-9 rescue assay (relief of BIR3-mediated Caspase-9 inhibition); type: biochemical, human Caspase-9; Rat or Chicken BIR3; conditions: average EC50, substrate Ac-LEHD-amc, pH 6.5
T1 construct: Nothing is printed for this assay
Protocol: Additionally the compounds and compositions can be evaluated for their ability to achieve relief of BIR3-mediated Caspase-9 inhibition by measuring Caspase-9 reactivation. The fluorogenic substrate Ac-LEHD-7-amido-4-methylcoumarin is used in these methods. EC50 values of tested BIR3 inhibitors or Caspase-9 rescuers is calculated from the percentage of Caspase-9 reactivation in the mixtures containing serially diluted concentrations of tested compound. Typically, 10-point curves are generated for such EC50 determination.
Relief of BIR3-mediated Caspase-9 inhibition by BIR3 inhibitors was assayed by measuring Caspase-9 reactivation using the fluorogenic substrate Ac-LEHD-7-amido-4-methylcoumarin. A truncated form of human Caspase-9 that lacks the N-terminal Caspase recruitment domain (EPro-Caspase-9 or p35/p12) was used in the assay. This form of the enzyme has the full catalytic activity and the same substrate specificity as the full-length protein in the Apaf-1/Cytochrome C/dATP/Caspase-9 reconstituted system. Rat or Chicken BIR3 was used in this assay. […] This mixture was incubated for 40 min to allow equilibration at 25° C., and the assay progression was subsequently followed by monitoring the formation of fluorescent 7-amido-4-methylcoumarin over time at 460 nm using an excitation wavelength of 360 nm. […] EC50 values of tested BIR3 inhibitors or Caspase-9 rescuers were calculated from the percentage of Caspase-9 reactivation in the mixtures containing serially diluted concentrations of tested compound.

Chain of BIR3 domain of rat XIAP (Q9R0I6 241-355): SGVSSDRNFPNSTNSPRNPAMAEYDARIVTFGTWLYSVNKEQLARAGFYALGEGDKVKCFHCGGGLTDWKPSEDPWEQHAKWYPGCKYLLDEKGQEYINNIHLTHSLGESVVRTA

Row | SMILES | EC50 [1] [nM] | EC50 [2] [nM]
1 | CNC(C)C(=O)NC(C(=O)NC(CCCCNS(C)(=O)=O)C(=O)NC1CCCc2ccccc21)C(C)C (stereo not shown) [6-Methanesulfonylamino-2-[3-methyl-2-(2-methylamino-propionylamino)-butyrylamino]-hexanoic acid (1,2,3,4-tetrahydro-naphthalen-1-yl)-amide] | < 1000 | < 1000
2 | CNC(C)C(=O)NC(C(=O)NC(CC(=O)OCc1ccccc1)C(=O)NC1CCCc2ccccc21)C(C)C (stereo not shown) [3-[3-Methyl-2-(2-methylamino-propionylamino)-butyrylamino]-N-(1,2,3,4-tetrahydro-naphthalen-1-yl)-succinamic acid benzyl ester] | < 1000 | 1000 to 10000
3 | CNC(C)C(=O)NC(C(=O)N1CSCC1C(=O)NC1CCc2ccccc21)C(C)C (stereo not shown) [3-[3-Methyl-2-(2-methylamino-propionylamino)-butyryl]-thiazolidine-4-carboxylic acid indan-1-ylamide] | < 1000 | < 1000
4 | CNC(C)C(=O)NC(C(=O)N(C)C(CCCCNC(=O)OCc1ccccc1)C(=O)NC1CCCc2ccccc21)C(C)C (stereo not shown) [[5-{Methyl-[3-methyl-2-(2-methylamino-propionylamino)-butyryl]-amino}-5-(1,2,3,4-tetrahydro-naphthalen-1-ylcarbamoyl)-pentyl]-carbamic acid benzyl ester] | < 1000 | 1000 to 10000
5 | CNC(C)C(=O)NC(C(=O)N1CSCC1C(=O)NC(Cc1ccccc1)Cc1ccccc1)C(C)C (stereo not shown) [3-[3-Methyl-2-(2-methylamino-propionylamino)-butyryl]-thiazolidine-4-carboxylic acid (1-benzyl-2-phenyl-ethyl)-amide] | < 1000 | < 1000
6 | CCCCC(NC(=O)C(NC(=O)C(C)NC)C(C)C)C(=O)NC1CCCc2ccccc21 (stereo not shown) [2-[3-Methyl-2-(2-methylamino-propionylamino)-butyrylamino]-hexanoic acid (1,2,3,4-tetrahydro-naphthalen-1-yl)-amide] | < 1000 | 1000 to 10000
7 | CNC(C)C(=O)NC(C(=O)N1CCSCC1C(=O)NC1CCCc2ccccc21)C(C)C (stereo not shown) [4-[3-Methyl-2-(2-methylamino-propionylamino)-butyryl]-thiomorpholine-3-carboxylic acid (1,2,3,4-tetrahydro-naphthalen-1-yl)-amide] | < 1000 | 1000 to 10000
8 | CCCCN(CCCC)CCCCC(NC(=O)C(NC(=O)C(C)NC)C(C)C)C(=O)NC1CCCc2ccccc21 (stereo not shown) [6-Dibutylamino-2-[3-methyl-2-(2-methylamino-propionylamino)-butyrylamino]-hexanoic acid (1,2,3,4-tetrahydro-naphthalen-1-yl)-amide] | < 1000 | < 1000
9 | CNC(C)C(=O)NC(C(=O)NC(CCCCNC(C)=O)C(=O)NC1CCCc2ccccc21)C(C)C (stereo not shown) [6-Acetylamino-2-[3-methyl-2-(2-methylamino-propionylamino)-butyrylamino]-hexanoic acid (1,2,3,4-tetrahydro-naphthalen-1-yl)-amide] | < 1000 | 1000 to 10000
10 | CNC(C)C(=O)NC(C(=O)N1CCSC1C(=O)NC1CCCc2ccccc21)C(C)C (stereo not shown) [3-[3-Methyl-2-(2-methylamino-propionylamino)-butyryl]-thiazolidine-2-carboxylic acid (1,2,3,4-tetrahydro-naphthalen-1-yl)-amide] | < 1000 | < 1000
11 | CNC(C)C(=O)NC(C(=O)N1Cc2ccccc2CC1C(=O)NC1CCCc2ccccc21)C(C)C (stereo not shown) [2-[3-Methyl-2-(2-methylamino-propionylamino)-butyryl]-1,2,3,4-tetrahydro-isoquinoline-3-carboxylic acid (1,2,3,4-tetrahydro-naphthalen-1-yl)-amide] | < 1000 | < 1000
12 | CCCCCN1C(=O)CCC(NC(=O)C(C)NC)C(=O)N1CC(=O)NC1CCCc2ccccc21 (stereo not shown) [N-{3,7-Dioxo-1-pentyl-2-[(1,2,3,4-tetrahydro-naphthalen-1-ylcarbamoyl)-methyl]-[1,2]diazepan-4-yl}-2-methylamino-propionamide] | 1000 to 10000 | > 10000
13 | CCCCS(=O)(=O)NCCCCC(NC(=O)C(NC(=O)C(C)NC)C(C)C)C(=O)NC1CCCc2ccccc21 (stereo not shown) [6-(Butane-1-sulfonylamino)-2-[3-methyl-2-(2-methylamino-propionylamino)-butyrylamino]-hexanoic acid (1,2,3,4-tetrahydro-naphthalen-1-yl)-amide] | < 1000 | < 1000
14 | CNC(C)C(=O)NC(C(=O)N1CSCC1C(=O)NN(c1ccccc1)c1ccccc1)C(C)C (stereo not shown) [N-{1-[4-(N′,N′-Diphenyl-hydrazinocarbonyl)-thiazolidine-3-carbonyl]-2-methyl-propyl}-2-methylamino-propionamide] | < 1000 | 1000 to 10000
15 | CNC(C)C(=O)NC(C(=O)NC(CCO)C(=O)NC1CCCc2ccccc21)C(C)C (stereo not shown) [N-[3-Hydroxy-1-(1,2,3,4-tetrahydro-naphthalen-1-ylcarbamoyl)-propyl]-3-methyl-2-(2-methylamino-propionylamino)-butyramide] | < 1000 | 1000 to 10000
16 | CNC(C)C(=O)NC(C(=O)N1CSCC1C(=O)NC1CCCc2ccccc21)C(C)C (stereo not shown) [3-[3-Methyl-2-(2-methylamino-propionylamino)-butyryl]-thiazolidine-4-carboxylic acid (1,2,3,4-tetrahydro-naphthalen-1-yl)-amide] | < 1000 | < 1000
17 | CNC(C)C(=O)NC(C(=O)NC(CCC(=O)OCc1ccccc1)C(=O)NC1CCCc2ccccc21)C(C)C (stereo not shown) [4-[3-Methyl-2-(2-methylamino-propionylamino)-butyrylamino]-4-(1,2,3,4-tetrahydro-naphthalen-1-ylcarbamoyl)-butyric acid benzyl ester] | < 1000 | 1000 to 10000
18 | CNC(C)C(=O)NC(C(=O)NC(Cc1ccccc1)C(=O)NC1CCCc2ccccc21)C(C)C (stereo not shown) [3-Methyl-2-(2-methylamino-propionylamino)-N-[2-phenyl-1-(1,2,3,4-tetrahydro-naphthalen-1-ylcarbamoyl)-ethyl]-butyramide] | 1000 to 10000 | > 10000
19 | CNC(C)C(=O)NC(C(=O)N1Cc2ccccc2CC1C(=O)NC(Cc1ccccc1)Cc1ccccc1)C(C)C (stereo not shown) [2-[3-Methyl-2-(2-methylamino-propionylamino)-butyryl]-1,2,3,4-tetrahydro-isoquinoline-3-carboxylic acid (1-benzyl-2-phenyl-ethyl)-amide] | < 1000 | 1000 to 10000
20 | CNC(C)C(=O)NC(CCCCNC(=O)OCC1c2ccccc2-c2ccccc21)C(=O)N1CSCC1C(=O)NC1CCCc2ccccc21 (stereo not shown) [{5-(2-Methylamino-propionylamino)-6-oxo-6-[4-(1,2,3,4-tetrahydro-naphthalen-1-ylcarbamoyl)-thiazolidin-3-yl]-hexyl}-carbamic acid 9H-fluoren-9-ylmethyl ester] | < 1000 | < 1000
21 | CNC(C)C(=O)NC(C(=O)NC(C(=O)NC1CCCc2ccccc21)C1CCCCC1)C(C)C (stereo not shown) [N-[Cyclohexyl-(1,2,3,4-tetrahydro-naphthalen-1-ylcarbamoyl)-methyl]-3-methyl-2-(2-methylamino-propionylamino)-butyramide] | < 1000 | < 1000
22 | CNC(C)C(=O)NC(C(=O)NCC(=O)NC1CCCc2ccccc21)C(C)C (stereo not shown) [3-Methyl-2-(2-methylamino-propionylamino)-N-[(1,2,3,4-tetrahydro-naphthalen-1-ylcarbamoyl)-methyl]-butyramide] | 1000 to 10000 | 1000 to 10000
23 | CN[C@@H](C)C(=O)N[C@H](C(=O)N[C@@H](CCCCNS(=O)(=O)c1ccc(C)cc1)C(=O)NC1CCCc2ccccc21)C(C)C (stereo in doubt) [2-[3-Methyl-2-(2-methylamino-propionylamino)-butyrylamino]-6-(toluene-4-sulfonylamino)-hexanoic acid (1,2,3,4-tetrahydro-naphthalen-1-yl)-amide] | < 1000 | < 1000
24 | CC(C)CNC(C)C(=O)NC(C(=O)N1CCCC1C(=O)NC1CCCc2ccccc21)C(C)(C)C (stereo not shown) [1-[2-(2-Isobutylamino-propionylamino)-3,3-dimethyl-butyryl]-pyrrolidine-2-carboxylic acid (1,2,3,4-tetrahydro-naphthalen-1-yl)-amide] | < 1000 | 1000 to 10000
25 | CNC(C)C(=O)NC(C(=O)N1C(C(=O)NC2CCCc3ccccc32)CC2CCCCC21)C(C)C (stereo not shown) [1-[3-Methyl-2-(2-methylamino-propionylamino)-butyryl]-octahydro-indole-2-carboxylic acid (1,2,3,4-tetrahydro-naphthalen-1-yl)-amide] | < 1000 | < 1000
26 | CNC(C)C(=O)NC(C(=O)NC(CCCCNS(=O)(=O)C(F)(F)F)C(=O)NC1CCCc2ccccc21)C(C)C (stereo not shown) [2-[3-Methyl-2-(2-methylamino-propionylamino)-butyrylamino]-6-trifluoromethanesulfonylamino-hexanoic acid (1,2,3,4-tetrahydro-naphthalen-1-yl)-amide] | < 1000 | > 10000
